# Experimental data as given in PubChem BioAssay AID2060891 (Molecular Pharmacology Branch, DTP, NCI, 2025).
# Tested on: K98450-129-R-PDC complex spheroid growth, percent test/control
# Assay: Anticancer human tumor K98450-129-R-PDC patient-derived colon adenocarcinoma cell line growth inhibition [RAS]
# Details: for IC50: curve of first compound; for viability, T/C: stronger effect = lower value
# Summary of the method: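 Tumour cells grown as complex spheroids with HUVEC endothelial cells and mesenchymal stem cells, treated with RAS pathway inhibitor combinations. Each agent spans half-log steps from near clinical Cmax, or 10 microM where Cmax is unknown.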
# [1] = second compound 0.000949 µM, first compound 0.0316 µM
# [2] = second compound 0.000949 µM, first compound 0.1 µM
# [3] = second compound 0.000949 µM, first compound 0.316 µM
# [4] = second compound 0.000949 µM, first compound 1 µM
# [5] = second compound 0.003 µM, first compound 0.0316 µM
# [6] = second compound 0.003 µM, first compound 0.1 µM
# [7] = second compound 0.003 µM, first compound 0.316 µM
# [8] = second compound 0.003 µM, first compound 1 µM
# [9] = second compound 0.00949 µM, first compound 0.0316 µM
# [10] = second compound 0.00949 µM, first compound 0.1 µM
# [11] = second compound 0.00949 µM, first compound 0.316 µM
# [12] = second compound 0.00949 µM, first compound 1 µM
# [13] = second compound 0.03 µM, first compound 0.0316 µM
# [14] = second compound 0.03 µM, first compound 0.1 µM
# [15] = second compound 0.03 µM, first compound 0.316 µM
# [16] = second compound 0.03 µM, first compound 1 µM
# [17] = second compound 0.0949 µM, first compound 0.0316 µM
# [18] = second compound 0.0949 µM, first compound 0.1 µM
# [19] = second compound 0.0949 µM, first compound 0.316 µM
# [20] = second compound 0.0949 µM, first compound 1 µM
# [21] = second compound 0.3 µM, first compound 0.0316 µM
# [22] = second compound 0.3 µM, first compound 0.1 µM
# [23] = second compound 0.3 µM, first compound 0.316 µM
# [24] = second compound 0.3 µM, first compound 1 µM
# 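Also: spheroids exposed to agents for seven days before the viability readout.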
# 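For viability, T/C in this document: luminescence used as a proxy for viable cell amount.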
structure (smiles),measurement,setting,value
CC(=O)OC12COC1CC(O)C1(C)C(=O)C(O)C3=C(C)C(OC(=O)C(O)C(NC(=O)OC(C)(C)C)c4ccccc4)CC(O)(C(OC(=O)c4ccccc4)C21)C3(C)C (stereo unspecified) + CCn1c(-c2cc(N3CCN(C)CC3)cnc2C(C)OC)c2c3cc(ccc31)-c1csc(n1)CC(NC(=O)C1CC1C)C(=O)N1CCCC(N1)C(=O)OCC(C)(C)C2,IC50,second compound 0.000949 µM,688 nM
same,IC50,second compound 0.003 µM,252 nM
same,IC50,second compound 0.00949 µM,188 nM
same,IC50,second compound 0.03 µM,< 31.6 nM
same,IC50,second compound 0.0949 µM,< 31.6 nM
same,IC50,second compound 0.3 µM,< 31.6 nM
same,"viability, T/C",[1],101%
same,"viability, T/C",[2],78.6%
same,"viability, T/C",[3],66.3%
same,"viability, T/C",[4],39.4%
same,"viability, T/C","second compound 0.000949 µM, first compound 3.16 µM",38.4%
same,"viability, T/C","second compound 0.000949 µM, first compound 10 µM",34%
same,"viability, T/C",[5],95.8%
same,"viability, T/C",[6],69.4%
same,"viability, T/C",[7],46%
same,"viability, T/C",[8],29.2%
same,"viability, T/C","second compound 0.003 µM, first compound 3.16 µM",32.5%
same,"viability, T/C","second compound 0.003 µM, first compound 10 µM",22.4%
same,"viability, T/C",[9],64.7%
same,"viability, T/C",[10],70.1%
same,"viability, T/C",[11],35.6%
same,"viability, T/C",[12],24.6%
same,"viability, T/C","second compound 0.00949 µM, first compound 3.16 µM",23.5%
same,"viability, T/C","second compound 0.00949 µM, first compound 10 µM",19.2%
same,"viability, T/C",[13],44.9%
same,"viability, T/C",[14],43.2%
same,"viability, T/C",[15],20.9%
same,"viability, T/C",[16],16.6%
same,"viability, T/C","second compound 0.03 µM, first compound 3.16 µM",15.8%
same,"viability, T/C","second compound 0.03 µM, first compound 10 µM",15.3%
same,"viability, T/C",[17],17.3%
same,"viability, T/C",[18],14.5%
same,"viability, T/C",[19],12.4%
same,"viability, T/C",[20],12.5%
same,"viability, T/C","second compound 0.0949 µM, first compound 3.16 µM",12.5%
same,"viability, T/C","second compound 0.0949 µM, first compound 10 µM",10.7%
same,"viability, T/C",[21],11%
same,"viability, T/C",[22],10.1%
same,"viability, T/C",[23],11%
same,"viability, T/C",[24],9.96%
same,"viability, T/C","second compound 0.3 µM, first compound 3.16 µM",10.9%
same,"viability, T/C","second compound 0.3 µM, first compound 10 µM",9.38%
CCc1c2c(nc3ccc(O)cc13)-c1cc3c(c(=O)n1C2)COC(=O)[C@]3(O)CC + CCn1c(-c2cc(N3CCN(C)CC3)cnc2C(C)OC)c2c3cc(ccc31)-c1csc(n1)CC(NC(=O)C1CC1C)C(=O)N1CCCC(N1)C(=O)OCC(C)(C)C2,IC50,second compound 0.000949 µM,83.6 nM
same,IC50,second compound 0.003 µM,57.1 nM
same,IC50,second compound 0.00949 µM,18.5 nM
same,IC50,second compound 0.03 µM,3.92 nM
same,IC50,second compound 0.0949 µM,< 0.949 nM
same,IC50,second compound 0.3 µM,< 0.949 nM
same,"viability, T/C","second compound 0.000949 µM, first compound 0.000949 µM",105%
same,"viability, T/C","second compound 0.000949 µM, first compound 0.003 µM",89.6%
same,"viability, T/C","second compound 0.000949 µM, first compound 0.00949 µM",81.6%
same,"viability, T/C","second compound 0.000949 µM, first compound 0.03 µM",52.6%
same,"viability, T/C","second compound 0.000949 µM, first compound 0.0949 µM",53.1%
same,"viability, T/C","second compound 0.000949 µM, first compound 0.3 µM",44.3%
same,"viability, T/C","second compound 0.003 µM, first compound 0.000949 µM",91.6%
same,"viability, T/C","second compound 0.003 µM, first compound 0.003 µM",75.3%
same,"viability, T/C","second compound 0.003 µM, first compound 0.00949 µM",76%
same,"viability, T/C","second compound 0.003 µM, first compound 0.03 µM",54.7%
same,"viability, T/C","second compound 0.003 µM, first compound 0.0949 µM",43.8%
same,"viability, T/C","second compound 0.003 µM, first compound 0.3 µM",36.4%
same,"viability, T/C","second compound 0.00949 µM, first compound 0.000949 µM",69.5%
same,"viability, T/C","second compound 0.00949 µM, first compound 0.003 µM",56.6%
same,"viability, T/C","second compound 0.00949 µM, first compound 0.00949 µM",66.7%
same,"viability, T/C","second compound 0.00949 µM, first compound 0.03 µM",39.6%
same,"viability, T/C","second compound 0.00949 µM, first compound 0.0949 µM",29.3%
same,"viability, T/C","second compound 0.00949 µM, first compound 0.3 µM",22.5%
same,"viability, T/C","second compound 0.03 µM, first compound 0.000949 µM",53.4%
same,"viability, T/C","second compound 0.03 µM, first compound 0.003 µM",52.8%
same,"viability, T/C","second compound 0.03 µM, first compound 0.00949 µM",43.3%
same,"viability, T/C","second compound 0.03 µM, first compound 0.03 µM",24.7%
same,"viability, T/C","second compound 0.03 µM, first compound 0.0949 µM",22.8%
same,"viability, T/C","second compound 0.03 µM, first compound 0.3 µM",13.9%
same,"viability, T/C","second compound 0.0949 µM, first compound 0.000949 µM",19.6%
same,"viability, T/C","second compound 0.0949 µM, first compound 0.003 µM",24.4%
same,"viability, T/C","second compound 0.0949 µM, first compound 0.00949 µM",17.5%
same,"viability, T/C","second compound 0.0949 µM, first compound 0.03 µM",12.3%
same,"viability, T/C","second compound 0.0949 µM, first compound 0.0949 µM",13.2%
same,"viability, T/C","second compound 0.0949 µM, first compound 0.3 µM",9.33%
same,"viability, T/C","second compound 0.3 µM, first compound 0.000949 µM",12.4%
same,"viability, T/C","second compound 0.3 µM, first compound 0.003 µM",15.5%
same,"viability, T/C","second compound 0.3 µM, first compound 0.00949 µM",11.4%
same,"viability, T/C","second compound 0.3 µM, first compound 0.03 µM",10.8%
same,"viability, T/C","second compound 0.3 µM, first compound 0.0949 µM",10.3%
same,"viability, T/C","second compound 0.3 µM, first compound 0.3 µM",6.55%
Nc1ccn(C2OC(CO)C(O)C2(F)F)c(=O)n1 (stereo unspecified) + CCn1c(-c2cc(N3CCN(C)CC3)cnc2C(C)OC)c2c3cc(ccc31)-c1csc(n1)CC(NC(=O)C1CC1C)C(=O)N1CCCC(N1)C(=O)OCC(C)(C)C2,IC50,second compound 0.000949 µM,254 nM
same,IC50,second compound 0.003 µM,133 nM
same,IC50,second compound 0.00949 µM,26.4 nM
same,IC50,second compound 0.03 µM,< 3.16 nM
same,IC50,second compound 0.0949 µM,< 3.16 nM
same,IC50,second compound 0.3 µM,< 3.16 nM
same,"viability, T/C","second compound 0.000949 µM, first compound 0.00316 µM",93.1%
same,"viability, T/C","second compound 0.000949 µM, first compound 0.01 µM",82.9%
same,"viability, T/C",[1],80.5%
same,"viability, T/C",[2],56.4%
same,"viability, T/C",[3],50.5%
same,"viability, T/C",[4],37.6%
same,"viability, T/C","second compound 0.003 µM, first compound 0.00316 µM",98.1%
same,"viability, T/C","second compound 0.003 µM, first compound 0.01 µM",80.1%
same,"viability, T/C",[5],62.3%
same,"viability, T/C",[6],52.8%
same,"viability, T/C",[7],44.4%
same,"viability, T/C",[8],37.3%
same,"viability, T/C","second compound 0.00949 µM, first compound 0.00316 µM",77%
same,"viability, T/C","second compound 0.00949 µM, first compound 0.01 µM",62.2%
same,"viability, T/C",[9],49.2%
same,"viability, T/C",[10],33.2%
same,"viability, T/C",[11],30%
same,"viability, T/C",[12],23.8%
same,"viability, T/C","second compound 0.03 µM, first compound 0.00316 µM",43.4%
same,"viability, T/C","second compound 0.03 µM, first compound 0.01 µM",45.9%
same,"viability, T/C",[13],33.5%
same,"viability, T/C",[14],23.1%
same,"viability, T/C",[15],20.7%
same,"viability, T/C",[16],15.2%
same,"viability, T/C","second compound 0.0949 µM, first compound 0.00316 µM",21.1%
same,"viability, T/C","second compound 0.0949 µM, first compound 0.01 µM",21.4%
same,"viability, T/C",[17],14.4%
same,"viability, T/C",[18],11.9%
same,"viability, T/C",[19],14.8%
same,"viability, T/C",[20],11.5%
same,"viability, T/C","second compound 0.3 µM, first compound 0.00316 µM",9.67%
same,"viability, T/C","second compound 0.3 µM, first compound 0.01 µM",13.7%
same,"viability, T/C",[21],12.9%
same,"viability, T/C",[22],11.4%
same,"viability, T/C",[23],10.9%
same,"viability, T/C",[24],9.09%
